Measurements published in paper PMC7887271, “Fast acting allosteric phosphofructokinase inhibitors block trypanosome glycolysis and cure acute African trypanosomiasis in mice” (Nature Communications, 2021).

Assays:
[1] = Mouse brain tissue binding; assay type: in vitro ADME; conditions: read-out: Mouse brain tissue binding fu (%)
CYP2C9 = biological target: T1, CYP2C9 (Homo sapiens, UniProt P11712); test: Inhibition of CYP450 2C9; assay type: in vitro ADME; conditions: CYP450 isoform inhibition kit (BD Biosciences), probe MFC
T1 construct: purchased BD Biosciences
T1 sequence (P11712 whole entry, canonical isoform): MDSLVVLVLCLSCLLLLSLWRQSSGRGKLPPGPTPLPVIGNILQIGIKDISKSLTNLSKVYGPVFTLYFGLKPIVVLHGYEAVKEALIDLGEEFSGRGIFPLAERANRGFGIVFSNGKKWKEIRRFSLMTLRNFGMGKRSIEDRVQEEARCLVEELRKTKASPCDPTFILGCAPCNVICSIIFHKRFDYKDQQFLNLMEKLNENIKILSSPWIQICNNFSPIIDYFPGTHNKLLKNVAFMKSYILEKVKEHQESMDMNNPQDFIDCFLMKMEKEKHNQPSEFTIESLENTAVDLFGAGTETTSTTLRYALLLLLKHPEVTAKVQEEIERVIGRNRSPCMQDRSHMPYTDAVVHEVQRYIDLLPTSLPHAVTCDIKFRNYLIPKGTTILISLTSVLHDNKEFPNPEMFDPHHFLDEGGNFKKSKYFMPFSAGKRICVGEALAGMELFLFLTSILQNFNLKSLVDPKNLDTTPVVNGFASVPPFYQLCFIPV
Method: (§1) A HepG2 cytotoxicity assay was used to determine a cellular selectivity index. HepG2 cells were seeded into 96-well plates in EMEM medium. Compounds were assessed for their effect upon cellular viability (Supplementary Methods 5.1). Inhibition of CYP450 was determined using kits from BD Biosciences (Supplementary Methods 5.2). Metabolic stability was determined using mouse […] tested at a single concentration of 5 µM. Plasma protein binding was determined using mouse and human plasma at a single concentration of 10 µM (Supplementary Methods 5.4). All PK studies in mice were carried out by Pharmidex (Supplementary Methods 6.1).
The compounds were investigated for their inhibitory effect on cytochrome P450 (CYP450) activity using five CYP450 isoforms (with fluorescent substrates in brackets): 3A4 (two substrates, BFC and DBF), 2D6 (AMMC), 2C9 (MFC), 2C19 (CEC) and 1A2 (CEC). Kits from BD Biosciences were used along with the method described by the manufacturer. […] Fluorescence was measured using a SpectraMax M5 plate reader.

[2] = Metabolic stability, human liver microsomes; assay type: in vitro ADME; conditions: read-out: HLM Clint
Method: as §1
(§2) Compounds were tested for their metabolic stability using mouse and human liver microsomes (MLM and HLM). The compounds were tested at a single concentration of 5 µM. The samples were crashed with acetonitrile and put through protein precipitation plates. The eluent was analysed by LC/MS or LC/MS/MS.

[3] = Tolerance studies and plasma levels after multiple oral dosing; assay type: in vivo; conditions: for Experimental plasma concentration measured @2hr after final dose: 2 h intervals; for tolerance of high doses: mice, oral
Method: All efficacy studies were carried out using CD-1 mice in accordance with the United Kingdom Animals (Scientific Procedures) Act (1986) under Home Office regulations. Studies were performed in SPF facilities at the University of Edinburgh under licence PPL 70/8102 and at the University of Glasgow under PPL 60/4442. The experiments were approved by the local ethics committees of the respective universities. Dosing regimens used in efficacy studies were first tested for tolerance in female CD-1 mice (University of Edinburgh; 6–8 weeks old). Animals were dosed orally by gavage with CTCB compounds following the dosing regimen for each individual experiment (n = 5; Supplementary Methods 6.2).
Dosing regimens used in efficacy studies were first tested for tolerance in female CD-1 mice (University of Edinburgh; 6-8 weeks old). Animals were dosed orally by gavage with CTCB compounds following the dosing regimen for each individual experiment (n=5) as indicated. Compounds were administered in a mixture containing Cremophor EL: EtOH: D-PBS (30:10:60 v/v). Animals were monitored for up to 8 hours post-dosing. On the final day of dosing, 2 hours after the final dose, whole blood was harvested from three mice via cardiac puncture, under gaseous isoflurane anaesthesia, to obtain plasma for analyses. The remaining two mice were monitored for several days post dosing. To avoid coagulation, 100 μl of 2% sodium citrate was utilised in the syringe during the procedure and blood samples subsequently transferred to heparin coated microtubules. Blood samples were centrifuged at 800 x g for 10 minutes at room temperature. The supernatant containing the plasma was transferred to a fresh tube for determination of compound levels and further PK analysis.

[4] = Plasma protein binding, human plasma; assay type: in vitro ADME; conditions: equilibrium dialysis, read-out: Human plasma protein binding fu(%)
Method: as §1
Compounds were tested for protein binding using mouse and human plasma at a single concentration of 10 µM and measured by equilibrium dialysis between plasma and buffer. The amount of parent was determined on both sides of the membrane after incubating for 4 hours at 37 °C. The samples were crashed with acetonitrile and put through protein precipitation plates. The eluent was analysed by LC/MS or LC/MS/MS. Output was percentage bound.

[5] = Metabolic stability, mouse liver microsomes; assay type: in vitro ADME; conditions: read-out: MLM Clint
Method: as §1, §2

SMILES	fraction unbound [1]	inhibition at 10 µM (CYP2C9) [%]	microsomal CLint at 5 µM [2] [µL/min/mg]	Experimental plasma concentration measured @2hr after final dose ([3]; 3 x 50 mg/kg oral) [µM]	Experimental plasma concentration measured @2hr after final dose ([3]; 3 x 100 mg/kg oral) [µM]	tolerance of high doses [3]	plasma levels ([3]; three doses at 100 mg kg^−1 given on two consecutive days) [µM]	autopsied livers ([3]; up to 300 mg kg^−1 per day)	apparent toxicity ([3]; up to 300 mg kg^−1 per day, cumulative dosing tolerance studies)	fraction unbound at 4 h, 10 µM [4]	microsomal CLint at 5 µM [5] [µL/min/mg]
CN(C)CCn1ccc2c(ccn2Cc2ccc(Cl)c(Cl)c2)c1=O [CTCB-405, 1-[(3,4-Dichlorophenyl)methyl]-5-[2-(dimethylamino)ethyl] pyrrolo[3,2-c]pyridin-4-one]	0.008	11	< 8.6	6.8 ± 2.1	9.8 ± 3.1	well tolerated	9.8	appeared normal	no apparent toxicity	0.063	70
CN(C)CCn1ccc2c(ccn2Cc2ccc(Cl)c(Br)c2)c1=O [CTCB-470, 1-[(3-Bromo-4-chlorophenyl)methyl]-5-[2-(dimethylamino)ethyl] pyrrolo[3,2-c]pyridin-4-one]	0.006	28.5	17			well tolerated				0.032	91
CN(C)CCn1ccc2c(ccn2Cc2ccc(F)c(Br)c2)c1=O [CTCB-508, 1-[(3-Bromo-4-fluorophenyl)methyl]-5-[2-(dimethylamino)ethyl] pyrrolo[3,2-c]pyridin-4-one]	0.017	6.1	< 8.6			well tolerated				0.21	56
